The test concerns Mycosphaerella graminicola; Anamorph: Septoria tritici; Bayer Code SEPTTR (standard laboratory isolate, SI SEPTTR). The test can be described thus: Type A (high volume) assay, leaf blotch of wheat, standard laboratory SEPTTR isolate (SI SEPTTR). Particulars: standard laboratory isolate, high volume, 50 ppm, wheat (Yuma); for pest or weed control at 50 ppm: Zymoseptoria tritici. The test is classed as in vivo, Mycosphaerella graminicola on wheat plants (variety Yuma). As for the experimental part:
Example A: Evaluation of Fungicidal Activity: Leaf Blotch of Wheat (Mycosphaerella graminicola; Anamorph: Septoria tritici; Bayer Code SEPTTR)
For Type A assays, technical grades of the experimental fungicides in Table 4 below were dissolved in acetone, and then mixed with nine volumes of water containing 110 ppm Triton X-100. The fungicide solutions were applied onto wheat seedlings using an automated booth sprayer. For Type B assays, emulsifiable concentrate (EC) formulations of technical grades of the experimental fungicides in Table 4 below were prepared at 10% (w/v), and then mixed with 150 volumes of 0.1% Trycol 5941. These solutions were applied onto wheat seedlings using an automated track sprayer at 200 L/ha. All sprayed plants were allowed to air dry prior to further handling.
Wheat plants (variety Yuma) were grown from seed in a greenhouse in 50% mineral soil/50% soil-less Metro mix until the first leaf was fully emerged, with 7-10 seedlings per pot. Prior to or after application of experimental fungicides, plants were inoculated either with spores of a standard laboratory SEPTTR isolate (SI SEPTTR) or with spores from a SEPTTR field isolate collected from Wellsbourne, England in 2012 (FI SEPTTR). After inoculation the plants were kept for 3 days at 20° C. in 100% relative humidity (one day in a dark dew chamber followed by two days in a lighted dew chamber). Plants were then transferred to a 20° C. greenhouse for disease development. When disease symptoms were fully expressed on untreated plants, infection levels on treated plants were assessed on a scale of 0 to 100 percent disease severity. Percent disease control was calculated using the ratio of disease severity on treated plants relative to untreated plants.

[1] abbreviates: 24 h, 1 Day Protectant, read-out: Disease Control, SI SEPTTR Type A Assay (50 ppm) 1 DP.
The mark [2] stands for this setting: 72 h, 3 Day Curative, read-out: Disease Control, SI SEPTTR Type A Assay (50 ppm) 3 DC.

Like-named read-outs stand apart in the source and are kept apart here. A value given as a limit tells only on which side of the number the result lay.

Regarding `CC(C)C(O)(c1cccnc1)c1ccc(Oc2ccc(Cl)cn2)cn1` (stereo not shown) [Compound 77], the pest or weed control at 50 ppm under setting [1] lay in the range of 80 to 100%.

With `CC(C)C(O)(c1cncnc1)c1ccc(Oc2ccc(Cl)nc2)cn1` (stereo not shown) [Compound 10], the pest or weed control at 50 ppm is, setting by setting: under setting [1], 80 to 100%; under setting [2], 80 to 100%.

On to `OC(CCc1ccc(Cl)cc1F)(Cn1cnnn1)c1ccc(Oc2ccc(C(F)(F)F)cn2)cn1` (stereo not shown) [Compound 12], for which the pest or weed control at 50 ppm reads like this: under setting [1], 80 to 100%; under setting [2], below 40%.

As for `CC(C)C(O)(c1cncnc1)c1ccc(Oc2ccc(C(F)(F)F)cc2)cn1` (stereo not shown) [Compound 75], the “Disease Control, SI SEPTTR Type A Assay (50 ppm) 1 DP” value (1 Day Protectant) is “A (80-100)”.

On to `CCC(O)(c1cncnc1)c1ccc(Oc2ccc(OC(F)(F)F)cc2)cn1` (stereo not shown) [Compound 32], for which the pest or weed control at 50 ppm is, setting by setting: under setting [1], 80 to 100%; under setting [2], 80 to 100%.

On to `CCC(O)(c1cncnc1)c1ccc(Oc2cccc(Cl)n2)cn1` (stereo not shown) [Compound 70], for which, under setting [1], the pest or weed control at 50 ppm was in the range of 40 to 59%.

With `CC(C)(C)C(O)(c1cncnc1)c1ccc(-c2ccc(CC#N)cc2)cn1` (stereo not shown) [Compound 153], the pest or weed control at 50 ppm under setting [1] is 80 to 100%.

On to `CC(C)C(O)(c1cncnc1)c1ccc(Oc2ccc(Cl)cc2)cn1` (stereo not shown) [Compound 6], for which the pest or weed control at 50 ppm under setting [1] was 80 to 100% and the pest or weed control at 50 ppm under setting [2] was in the range of 80 to 100%.

As to `CC(C)(C)C(O)(Cn1cnnn1)c1ccc(-c2ccc(OC(F)(F)F)cc2)cn1` (stereo not shown) [Compound 26, 3,3-dimethyl-1-(1H-tetrazol-1-yl)-2-[5-[4-(trifluoro-methoxy)phenyl]pyridine-2-yl]butan-2-ol], the pest or weed control at 50 ppm by setting is: under setting [1], below 40%; under setting [2], 40 to 59%.

Regarding `N#Cc1ccc(Oc2ccc(C(O)(CC3CC3)Cn3cnnn3)nc2)cc1` (stereo not shown) [Compound 23], the pest or weed control at 50 ppm is, setting by setting: under setting [1], below 40%; under setting [2], 60 to 79%.

Turning to `CC(C)(C)C(O)(c1cncnc1)c1ccc(-c2cnc3ccccc3c2)cn1` (stereo not shown) [Compound 127], under setting [1], the pest or weed control at 50 ppm was in the range of 80 to 100%.

Take `CC(C)(C)C(O)(c1cncnc1)c1ccc(-c2ccc3c(c2)CCCO3)cn1` (stereo not shown) [Compound 137]: the pest or weed control at 50 ppm under setting [1] is 80 to 100%.

Take `CC(C)(C)C(O)(c1cncnc1)c1ccc(-c2ccc(C#N)nc2)cn1` (stereo not shown) [Compound 108]: the pest or weed control at 50 ppm under setting [1] lay within 60 to 79%.

Regarding `OC(Cc1cncnc1)(c1ccc(-c2ccc(Cl)cc2)cn1)C(F)(F)F` (stereo not shown) [Compound 46, 2-(5-(4-chlorophenyl)pyridin-2-yl)-1,1,1-trifluoro-3-(pyrimidin-5-yl)propan-2-ol], the pest or weed control at 50 ppm was 80 to 100% under setting [1] and 80 to 100% under setting [2].

With `OC(Cc1ccc(F)cc1F)(c1cncnc1)c1ccc(-c2ccc(OC(F)(F)F)cc2)cn1` (stereo not shown) [Compound 138], the pest or weed control at 50 ppm under setting [1] is 80 to 100%.

`CCC(C)(C)C(O)(c1cccnc1)c1ccc(-c2ccc(OC(F)(F)F)cc2)cn1` (stereo not shown) [Compound 154]: the pest or weed control at 50 ppm under setting [1] was in the range of 80 to 100%.

In the case of `CC(C)C(O)(Cn1cnnn1)c1ccc(-c2ccc(OC(F)(F)F)cc2)cn1` (stereo not shown) [Compound 61], the pest or weed control at 50 ppm reads like this: under setting [1], 40 to 59%; under setting [2], 60 to 79%.

Turning to `COc1ccc(-c2ccc(C(O)(c3cncnc3OC)C(C)(C)C)nc2)cn1` (stereo not shown) [Compound 171], the pest or weed control at 50 ppm under setting [1] fell in the range of 80 to 100%.

For the molecule `OC(Cc1ccc(Cl)cc1F)(Cn1cnnn1)c1ccc(-c2ccc(OC(F)(F)F)cc2)cn1` (stereo not shown) [Compound 28, 1-(4-chloro-2-fluorophenyl)-3-(1H-tetrazol-1-yl)-2-(5-(4-(trifluoromethoxy)phenyl)pyridin-2-yl)propan-2-ol], the pest or weed control at 50 ppm reads like this: under setting [1], 60 to 79%; under setting [2], 40 to 59%.

On to `C=Cc1ccc(-c2ccc(C(O)(c3cncnc3)C(C)(C)C)nc2)cc1` (stereo not shown) [Compound 109], for which the pest or weed control at 50 ppm under setting [1] is 60 to 79%.

Regarding `CCC(O)(c1cncnc1)c1ccc(Oc2ccc(Cl)nc2)cn1` (stereo not shown) [Compound 36], the pest or weed control at 50 ppm under setting [1] is below 40% and the pest or weed control at 50 ppm under setting [2] lay within 60 to 79%.

For the molecule `OC(Cc1ccc(Cl)cc1F)(Cn1cnnn1)c1ccc(Oc2ccc(Cl)cc2)cn1` (stereo not shown) [Compound 42, 1-(4-chloro-2-fluorophenyl)-2-(5-(4-chlorophenoxy)-pyridin-2-yl)-3-(1H-tetrazol-1-yl)propan-2-ol], the pest or weed control at 50 ppm was 80 to 100% under setting [1] and 80 to 100% under setting [2].

Take `OC(C#CC1CC1)(c1cncnc1)c1ccc(Oc2ccc(OC(F)(F)F)cc2)cn1` (stereo not shown) [Compound 48]: the pest or weed control at 50 ppm by setting is: under setting [1], below 40%; under setting [2], below 40%.

Take `CCOc1ccc(-c2ccc(C(O)(c3cncnc3)C(C)(C)C)nc2)cc1` (stereo not shown) [Compound 111]: the pest or weed control at 50 ppm under setting [1] was in the range of 60 to 79%.

On to `CC(C)(C)C(O)(Cc1cncnc1)c1ccc(-c2ccc(OC(F)F)cc2)cn1` (stereo not shown) [Compound 68], for which the pest or weed control at 50 ppm under setting [1] was 80 to 100%.

Consider `OC(Cc1cccc(Cl)c1)(c1cncnc1)c1ccc(-c2ccc(OC(F)(F)F)cc2)cn1` (stereo not shown) [Compound 141], for which, under setting [1], the pest or weed control at 50 ppm was in the range of 60 to 79%.

Turning to `CC(C)C(O)(c1ccc(-c2ccc(OC(F)F)cc2)cn1)c1cncs1` (stereo not shown) [Compound 85], under setting [1], the pest or weed control at 50 ppm was 80 to 100%.

`CC(C)C(O)(Cn1cnnn1)c1ccc(Oc2ccc(C#N)cc2)cn1` (stereo not shown) [Compound 24]: the pest or weed control at 50 ppm reads like this: under setting [1], below 40%; under setting [2], below 40%.

Regarding `COc1ncncc1C(O)(c1ccc(-c2ccc(C(F)(F)F)nc2)cn1)C(C)(C)C` (stereo not shown) [Compound 172], the pest or weed control at 50 ppm under setting [1] fell in the range of 80 to 100%.

On to `OC(C#CC1CC1)(c1cncnc1)c1ccc(Oc2ccc(C(F)(F)F)cc2)cn1` (stereo not shown) [Compound 47], for which the pest or weed control at 50 ppm reads like this: under setting [1], 40 to 59%; under setting [2], 80 to 100%.

As to `CC(C)(C)C(O)(c1cncnc1)c1ccc(Oc2ccc(Cl)cc2)cn1` (stereo not shown) [Compound 44], the pest or weed control at 50 ppm is, setting by setting: under setting [1], below 40%; under setting [2], below 40%.

For `CC(C)(C)C(O)(c1cncnc1)c1ccc(-c2cnc(C(F)(F)F)cc2C(F)(F)F)cn1` (stereo not shown) [Compound 128], the pest or weed control at 50 ppm under setting [1] was 80 to 100%.

In the case of `OC(CCc1ccc(Cl)cc1F)(Cn1cnnn1)c1ccc(Oc2ccc(Cl)cn2)cn1` (stereo not shown) [Compound 4], the pest or weed control at 50 ppm is, setting by setting: under setting [1], 60 to 79%; under setting [2], below 40%.

With `C=CCCC(O)(c1cncnc1)c1ccc(Oc2ccc(OC(F)(F)F)cc2)cn1` (stereo not shown) [Compound 22], the pest or weed control at 50 ppm under setting [1] fell in the range of 80 to 100% and the pest or weed control at 50 ppm under setting [2] is 80 to 100%.

With `OC(c1cncnc1)(c1ccc(Oc2ccc(Cl)nc2)cn1)C1CC1` (stereo not shown) [Compound 11], the pest or weed control at 50 ppm is, setting by setting: under setting [1], 40 to 59%; under setting [2], 40 to 59%.

`CC(C)(C)C(O)(c1cncnc1)c1ccc(-c2ccoc2)cn1` (stereo not shown) [Compound 123]: the pest or weed control at 50 ppm under setting [1] is 60 to 79%.

For `OC(c1cncnc1)(c1ccc(Oc2ccc(OC(F)(F)F)cc2)cn1)C1CC1` (stereo not shown) [Compound 8], the pest or weed control at 50 ppm by setting is: under setting [1], 80 to 100%; under setting [2], 80 to 100%.

Regarding `CC(C)C(O)(c1cncnc1)c1ccc(Oc2cccc(Cl)n2)cn1` (stereo not shown) [Compound 69], the pest or weed control at 50 ppm under setting [1] fell in the range of 80 to 100%.

With `CC(C)(C)C#CC(O)(c1cncnc1)c1ccc(Oc2ccc(Cl)nc2)cn1` (stereo not shown) [Compound 35], the pest or weed control at 50 ppm under setting [1] was below 40% and the pest or weed control at 50 ppm under setting [2] is 60 to 79%.

Turning to `OC(C#CC1CC1)(c1cncnc1)c1ccc(Oc2ccc(Cl)cc2)cn1` (stereo not shown) [Compound 40], the pest or weed control at 50 ppm is 80 to 100% under setting [1] and 60 to 79% under setting [2].

(Values after patent publication US10167300B2, “Metalloenzyme inhibitor compounds as fungicides” (priority 2014, dated 2019).)
